# System: human sebaceous glands (hSGs)
# Assay: Sebum content of ex-vivo cultured human sebaceous glands (lipids/proteins ratio)
# Assay type: cell-based
# Conditions: 5 μM, positive control; for Sebum content in hSGs, Average as % ratio of the control group: day 6 of organ culture
# Method: At the end of the culture time, the sebum was extracted and quantified from each experimental group of hSGs and then normalized by the proteins extracted from the residual hSG material (mg lipids/mg proteins). As a result, the biological activity of the tested compounds is inferred by comparing the lipids/proteins ratio of the treated glands with that of the control group. Using micro-scissors and tweezers, hSGs were isolated from the pilosebaceous units of a scalp skin sample. […] After 24 hours of culture the viability of the glands was assessed via resazurin assay and then, having attested their good viability, the culture medium was substituted with the same medium supplemented with experimental extracts, whereas the control group received again the standard medium. The culture medium was renewed every other day. At day six of the organ culture, after having preventively verified the good viability of the hSGs via resazurine assay, each group of hGSs was collected and analyzed for quantifying the sebum content. […] Methods are described in detail in WO2016020339 A8. The amounts of normalized lipids obtained from the treated groups, i.e. the sebum produced by each group of hSGs, were expressed in percentages with respect to the value obtained from the control group, in order to point out the regulatory effect performed by the experimental treatment.
smiles,measurement,setting,value
"COc1cc(CNC(=O)CCCC/C=C/C(C)C)ccc1O [capsaicin, Capsaicin]",Reduction of the sebum content of the hSGs in comparison with the control group,Table 6 experiment,26.5%
same,"Sebum content in hSGs, Average as % ratio of the control group",Table 6 experiment,73.5%
same,"Sebum content in hSGs, Average as % ratio of the control group",Table 7 experiment,88.3%
